Results taken from US20220002279A1, “NOVEL IMIDAZOLE DERIVATIVE” (priority 2018, published 2022).
In brackets after ≈: the same amount, converted by molar mass.

What was measured:
[1] = tested on: Escherichia coli strain ATCC25922; assay: Antimicrobial activity, MIC by broth microdilution; assay type: cell-based; conditions: ATCC25922, 18 h, cation-adjusted Mueller-Hinton broth, about 5×10^5 CFU/mL, 35° C., about 18 hours, read-out: MIC Escherichia coli ATCC25922
Excerpt: (§1) Test Example 4 Evaluation of the Antimicrobial Activity
(§2) For minimum inhibitory concentration (MIC) measurement, the following broth microdilution method was applied as adapted from the standard procedure recommended by the CLSI (Clinical and Laboratory Standards Institute).
(§3) The bacteria used were Pseudomonas aeruginosa strain ATCC27853, Escherichia coli strain ATCC25922, and Klebsiella pneumoniae strain ATCC13883. After culture overnight on a heart infusion agar medium, the cells of a test bacterium were scraped off, and a bacterial solution suspended to have a turbidity of level 0.5 on the McFarland scale was diluted and used as an inoculum solution. The inoculum solution was inoculated in a cation-adjusted Mueller-Hinton broth medium containing a test compound so that the final inoculation concentration was about 5×10^5 CFU/mL, and cultured at 35° C. for about 18 hours. A minimum drug concentration at which no cell growth was visible to the naked eye was designated as MIC. […] In the table, ND represents the case where suppression of the cell growth in a drug concentration-dependent manner was not observed (Not Determined), and NT represents that no test was conducted (Not Tested).

[2] = tested on: Pseudomonas aeruginosa strain ATCC27853; assay: Antimicrobial activity, MIC by broth microdilution; assay type: cell-based; conditions: ATCC27853, 18 h, cation-adjusted Mueller-Hinton broth, about 5×10^5 CFU/mL, 35° C., about 18 hours, read-out: MIC Pseudomonas aeruginosa ATCC27853
Excerpt: as §1, §2, §3

[3] = tested on: Klebsiella pneumoniae strain ATCC13883; assay: Antimicrobial activity, MIC by broth microdilution; assay type: cell-based; conditions: ATCC13883, cation-adjusted Mueller-Hinton broth, about 5×10^5 CFU/mL, 35° C., about 18 hours, read-out: MIC Klebsiella pneumoniae ATCC13883
Excerpt: as §1, §2, §3

[4] = target: T1, Escherichia coli LpxC enzyme (Escherichia coli, UniProt P0A725); assay: Inhibitory activity on Escherichia coli LpxC enzyme (fluorescamine method); assay type: biochemical; conditions: fluorescamine detection; 3.1 nmol/L enzyme, 20 μmol/L substrate, pH 6.5, 120 min; read-out: IC50 (inhibitory activity on Escherichia coli LpxC enzyme, Fluoresamine method)
T1 construct: made in house; host or cells: Escherichia coli
T1 sequence (P0A725 1-305): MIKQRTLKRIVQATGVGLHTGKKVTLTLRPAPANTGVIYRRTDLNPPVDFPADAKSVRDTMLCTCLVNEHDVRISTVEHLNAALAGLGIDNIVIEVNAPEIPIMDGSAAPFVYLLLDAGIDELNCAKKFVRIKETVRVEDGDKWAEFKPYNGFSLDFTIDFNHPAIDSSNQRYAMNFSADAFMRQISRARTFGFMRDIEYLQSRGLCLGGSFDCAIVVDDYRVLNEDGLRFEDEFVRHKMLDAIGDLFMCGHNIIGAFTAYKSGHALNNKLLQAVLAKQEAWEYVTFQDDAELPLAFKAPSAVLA
Experimental: To assay the activity of Escherichia coli LpxC enzyme, LpxC was reacted with its substrate, UDP-3-O-(R-3-hydroxymyristoyl)-N-acetylglucosamine, and the amount of the reaction product was quantified by the amino groups present in the product
The reaction was terminated by the addition of 1.0 mg/mL-fluorescamine dissolved in a solvent obtained by mixing an equal amount of acetonitrile and dimethylformamide with the reaction mixture, and then, a 0.2 mol/L-sodium phosphate buffer solution (pH 8.0) was added thereto, and the amount of the reaction product was detected at an excitation wavelength/fluorescence wavelength=390 nm/495 nm. An inhibition curve was obtained by performing the aforementioned reaction in the presence of various concentrations of test compounds.

Row | SMILES | MIC [1] | MIC [2] | MIC [3] | IC50 [4]
1 | CNC(=O)C(=O)N1C[C@@H]2[C@@H](C#Cc3ccc(-c4cc(Cn5ccnc5[C@H](C)O)no4)cc3)[C@@H]2C1 [Compound 105, 2-[(1R,5S,6s)-6-({4-[3-({2-[(1S)-1-Hydroxyethyl]-1H-imidazol-1-yl}methyl)-1,2-oxazol-5-yl]phenyl}ethynyl)-3-azabicyclo[3.1.0]hexan-3-yl]-N-methyl-2-oxoacetamide] | 1 µg/mL (≈ 2.18 µM) | 16 µg/mL (≈ 34.8 µM) | 1 µg/mL (≈ 2.18 µM) | 63.8 nM
2 | C[C@H](O)c1nccn1[C@H](CN(C)C)c1cc(-c2ccc(C#C[C@@H]3[C@H]4CN(CCO)C[C@@H]34)cc2)on1 [Compound 39, (1S)-1-(1-{(1R)-2-(Dimethylamino)-1-[5-(4-{[(1R,5S,6s)-3-(2-hydroxyethyl)-3-azabicyclo[3.1.0]hexan-6-yl]ethynyl}phenyl)-1,2-oxazol-3-yl]ethyl}-1H-imidazol-2-yl)ethan-1-ol] | 2 µg/mL (≈ 4.21 µM) | 8 µg/mL (≈ 16.8 µM) | 4 µg/mL (≈ 8.41 µM) | 1820 nM
3 | COCC(O)CN1C[C@@H]2[C@@H](C#Cc3ccc(-c4cc(Cn5ccnc5[C@H](C)O)no4)cc3)[C@@H]2C1 (stereo partly drawn) [Compound 57, 1-[(1R,5S,6s)-6-({4-[3-((2-[(1S)-1-hydroxyethyl]-1H-imidazol-1-yl}methyl)-1,2-oxazol-5-yl]phenyl}ethynyl)-3-azabicyclo[3.1.0]hexan-3-yl]-3-methoxypropan-2-ol] | 0.5 µg/mL (≈ 1.08 µM) | 8 µg/mL (≈ 17.3 µM) | 0.5 µg/mL (≈ 1.08 µM) | 71 nM
4 | C[C@H](O)c1nccn1Cc1cc(-c2ccc(C#C[C@@H]3[C@H]4CN(CCC(=O)O)C[C@@H]34)cc2)on1 [Compound 114, 3-[(1R,5S,6s)-6-({4-[3-({2-[(1S)-1-hydroxyethyl]-1H-imidazol-1-yl}methyl)-1,2-oxazol-5-yl]phenyl}ethynyl)-3-azabicyclo[3.1.0]hexan-3-yl]propanoic acid] | – | 4 µg/mL (≈ 8.96 µM) | 4 µg/mL (≈ 8.96 µM) | 291 nM
5 | C[C@H](O)c1nccn1[C@H](CN)c1cc(-c2ccc(C#CC3(C)COC3)cc2)on1 [Compound 116, (1S)-1-{1-[(1R)-2-amino-1-(5-{4-[(3-methyloxetan-3-yl)ethynyl]phenyl}-1,2-oxazol-3-yl)ethyl]-1H-imidazol-2-yl}ethan-1-ol] | 0.5 µg/mL (≈ 1.27 µM) | 64 µg/mL (≈ 163 µM) | 2 µg/mL (≈ 5.1 µM) | 79.1 nM
6 | C[C@H](O)c1nccn1Cc1cc(-c2ccc(C#C[C@@H]3[C@H]4CN(C(=O)CCC(=O)O)C[C@@H]34)cc2)on1 [Compound 95, 4-[(1R,5S,6s)-6-({4-[3-({2-[(1S)-1-hydroxyethyl]-1H-imidazol-1-yl}methyl)-1,2-oxazol-5-yl]phenyl}ethynyl)-3-azabicyclo[3.1.0]hexan-3-yl]-4-oxobutanoic acid] | 2 µg/mL (≈ 4.21 µM) | 16 µg/mL (≈ 33.7 µM) | 4 µg/mL (≈ 8.43 µM) | 134 nM
7 | C[C@H](O)c1nccn1[C@H](CN)c1cc(-c2ccc(C#CC3CC(NC4CC4)C3)cc2)on1 (stereo partly drawn) [Compound 129, (1S)-1-(1-{(1R)-2-amino-1-[5-(4-{[3-(cyclopropylamino)cyclobutyl]ethynyl}phenyl)-1,2-oxazol-3-yl]ethyl}-1H-imidazol-2-yl)ethan-1-ol] | 1 µg/mL (≈ 2.32 µM) | 8 µg/mL (≈ 18.5 µM) | 2 µg/mL (≈ 4.63 µM) | –
8 | C[C@H](O)c1nccn1[C@H](CN)c1cc(-c2ccc(C#C[C@H]3C[C@H](N(C)C=O)C3)cc2)on1 [Compound 123, N-{trans-3-[(4-{3-[(1R)-2-amino-1-{2-[(1S)-1-hydroxyethyl]-1H-imidazol-1-yl}ethyl]-1,2-oxazol-5-yl}phenyl)ethynyl]cyclobutyl}-N-methylformamide] | 4 µg/mL (≈ 9.23 µM) | 32 µg/mL (≈ 73.8 µM) | 2 µg/mL (≈ 4.61 µM) | –
9 | C[C@H](O)c1nccn1Cc1cc(-c2ccc(C#C[C@@H]3[C@H]4CN(CC(=O)O)C[C@@H]34)cc2)on1 [Compound 110, [(1R,5S,6s)-6-({4-[3-((2-[(1S)-1-hydroxyethyl]-1H-imidazol-1-yl}methyl)-1,2-oxazol-5-yl]phenyl}ethynyl)-3-azabicyclo[3.1.0]hexan-3-yl]acetic acid] | – | – | – | 219 nM
10 | C[C@H](O)c1nccn1[C@H](CN)c1cc(-c2ccc(C#C[C@@H]3[C@H]4CN(C(=O)C(N)=O)C[C@@H]34)cc2)on1 [Compound 124, 2-{(1R,5S,6s)-6-[(4-{3-[(1R)-2-amino-1-{2-[(1S)-1-hydroxyethyl]-1H-imidazol-1-yl}ethyl]-1,2-oxazol-5-yl}phenyl)ethynyl]-3-azabicyclo[3.1.0]hexan-3-yl}-2-oxoacetamide] | 2 µg/mL (≈ 4.21 µM) | 2 µg/mL (≈ 4.21 µM) | 4 µg/mL (≈ 8.43 µM) | –
11 | C[C@H](O)c1nccn1[C@H](CN)c1cc(-c2ccc(C#C[C@@H]3[C@H]4CN(CCCC(=O)O)C[C@@H]34)cc2)on1 [Compound 113, 4-{(1R,5S,6s)-6-[(4-{3-[(1R)-2-amino-1-{2-[(1S)-1-hydroxyethyl]-1H-imidazol-1-yl}ethyl]-1,2-oxazol-5-yl}phenyl)ethynyl]-3-azabicyclo[3.1.0]hexan-3-yl}butanoic acid] | 4 µg/mL (≈ 8.17 µM) | 4 µg/mL (≈ 8.17 µM) | 16 µg/mL (≈ 32.7 µM) | –
12 | C[C@H](O)c1nccn1Cc1cc(-c2ccc(C#C[C@H]3C[C@H](N)C3)cc2)on1 [Compound 23, (1S)-1-{1-[(5-(4-[(trans-3-aminocyclobutyl)ethynyl]phenyl}-1,2-oxazol-3-yl)methyl]-1H-imidazol-2-yl}ethan-1-ol] | 4 µg/mL (≈ 11 µM) | 16 µg/mL (≈ 44.1 µM) | 8 µg/mL (≈ 22.1 µM) | –
13 | C[C@H](O)c1nccn1Cc1cc(-c2ccc(C#C[C@H]3C[C@H](O)C3)cc2)on1 [Compound 54, trans-3-({4-[3-({2-[(1S)-1-Hydroxyethyl]-1H-imidazol-1-yl}methyl)-1,2-oxazol-5-yl]phenyl}ethynyl)cyclobutan-1-ol] | 0.12 µg/mL (≈ 0.33 µM) | 16 µg/mL (≈ 44 µM) | 0.25 µg/mL (≈ 0.688 µM) | –
14 | C[C@H](O)c1nccn1[C@H](CN)c1cc(-c2ccc(C#C[C@H]3C[C@](O)(CO)C3)cc2)on1 [Compound 90, cis-3-[(4-{3-[(1R)-2-amino-1-{2-[(1S)-1-hydroxyethyl]-1H-imidazol-1-yl}ethyl]-1,2-oxazol-5-yl}phenyl)ethynyl]-1-(hydroxymethyl)cyclobutan-1-ol] | 4 µg/mL (≈ 9.47 µM) | 4 µg/mL (≈ 9.47 µM) | 8 µg/mL (≈ 18.9 µM) | –
15 | COCCN1C[C@@H]2[C@@H](C#Cc3ccc(-c4cc([C@@H](CN)n5ccnc5[C@H](C)O)no4)cc3)[C@@H]2C1 [Compound 101, (1S)-1-(1-{(1R)-2-Amino-1-[5-(4-{[(1R,5S,6s)-3-(2-methoxyethyl)-3-azabicyclo[3.1.0]hexan-6-yl]ethynyl}phenyl)-1,2-oxazol-3-yl]ethyl}-1H-imidazol-2-yl)ethan-1-ol] | 0.5 µg/mL (≈ 1.08 µM) | 2 µg/mL (≈ 4.33 µM) | 1 µg/mL (≈ 2.17 µM) | –
16 | COC(=O)N1C[C@@H]2[C@@H](C#Cc3ccc(-c4cc([C@@H](CN)n5ccnc5[C@H](C)O)no4)cc3)[C@@H]2C1 [Compound 118, methyl (1R,5S,6s)-6-[(4-{3-[(1R)-2-amino-1-{2-[(1S)-1-hydroxyethyl]-1H-imidazol-1-yl}ethyl]-1,2-oxazol-5-yl}phenyl)ethynyl]-3-azabicyclo[3.1.0]hexane-3-carboxylate] | 0.25 µg/mL (≈ 0.542 µM) | 4 µg/mL (≈ 8.67 µM) | 0.5 µg/mL (≈ 1.08 µM) | –
17 | C[C@H](O)c1nccn1Cc1cc(-c2ccc(C#C[C@H]3C[C@@H](O)C3)cc2)on1 [Compound 88, cis-3-({4-[3-((2-[(1S)-1-Hydroxyethyl]-1H-imidazol-1-yl}methyl)-1,2-oxazol-5-yl]phenyl}ethynyl)cyclobutan-1-ol] | 0.12 µg/mL (≈ 0.33 µM) | 16 µg/mL (≈ 44 µM) | 0.25 µg/mL (≈ 0.688 µM) | –
18 | C[C@H](O)c1nccn1[C@H](CN)c1cc(-c2ccc(C#C[C@@H]3[C@H]4CN(C=O)C[C@@H]34)cc2)on1 [Compound 117, (1R,5S,6s)-6-[(4-{3-[(1R)-2-amino-1-{2-[(1S)-1-hydroxyethyl]-1H-imidazol-1-yl}ethyl]-1,2-oxazol-5-yl}phenyl)ethynyl]-3-azabicyclo[3.1.0]hexane-3-carbaldehyde] | 1 µg/mL (≈ 2.32 µM) | 8 µg/mL (≈ 18.5 µM) | 2 µg/mL (≈ 4.64 µM) | –
